Patent publication US20190210973A1, “COMPOUNDS AND METHODS FOR TREATMENT OF CYSTIC FIBROSIS” (The Curators of the University of Missouri, priority 2018, published 2019)
Where “and” joins values, the source holds several entries; their conditions need not be identical. Equal entries are not always repeated. Entries after “also recorded” stand apart in the source; their conditions may differ.

Columns and labels:
Assay type in all cases: cell-based
delF508-CFTR [1] = target: T1, delF508-CFTR (Homo sapiens, UniProt P13569, DEL508-508); experiment: Western blot of delF508-CFTR membrane (surface) expression, Band C; parameters: delF508 stably-transfected C127 cells were cultured in DMEM with 10% FBS in 6-well plates; expressed in transfected cells; host or cells: C127 cells stably expressing delF508-CFTR; settings: for surface expression of delF508-CFTR (Band C, corrected to vimentin, DMSO = 100): C127 cells
Text: The amount of CFTR proteins in the cell membrane can be determined with Western blot analysis. Like all membrane proteins in the cell, the CFTR protein is synthesized in the endoplasmic reticulum (ER), translocated to the Golgi apparatus for glycosylation before trafficked to the plasma membrane. Because of the addition of complex sugar molecules to CFTR, the molecular weight of “mature” or post-Golgi CFTR in the plasma membrane is higher than that of newly synthesized proteins in the ER. Thus, in Western blot, it is possible to discern two distinct bands: band C representing high molecular weight, mature CFTR, and band B low molecular weight, immature CFTR. While wild-type proteins are present mostly as band C, Class II disease-associated mutations such as delF508 causes a drastic diminution of band C, resulting in an effective decrease of N in the formula N×Po×i. The effects of the reagents (or CFTR correctors) that enhance band C can thus be quantitatively assessed with the Western blot analysis. By the same token, any interactions between different compounds, with positive or negative impact on band C, can be determined with this assay.
Western blot experiments were carried out in both transient expression system (CHO cells) and a stable cell line (C127 cells). CHO cells, grown in 35 mm dishes, were transfected with delF508-CFTR construct in pcDNA plasmids using X-tremeGENE (Roche). Six hours after transfection, tested compounds were added to the medium. In case of delF508-CFTR-expressing stable C127 cells, compounds were added to the medium at about 30% confluence. In both cases, cells were lysed 18 hours post drug treatment using 1×SDS loading buffer. Cell lysates were sheared by pushed through 18G needles. Whole cell lysate were separated in 4˜20% gradient gels (Bio-Rad Laboratories) and transferred onto nitrocellulose membranes. The membranes were blocked with 5% milk in TBST buffer (20 mM Tris, 137 mM NaCl, 0.1% Tween 20) at 4° C. overnight. The membranes were then probed with anti-CFTR antibody (AB596 from the Cystic Fibrosis Foundation) and anti-vimentin antibody as a control (Santa Cruz Biotechnology) at room temperature for two hours. The membranes were washed with TBST five times and then incubated with anti-mouse IgG, HRP-linked antibody (Cell Signaling Technology) at room temperature for one hour. The membranes were washed three times with TBST and developed with chemiluminescence reagent (Thermo Scientific). The luminescence was detected and quantified by a Molecular Image Chemi Doc (Bio-Rad Laboratories).
For Western blotting experiments, delF508 stably-transfected C127 cells were cultured in DMEM with 10% FBS in 6-well plates. Different tested compounds were added to the culture medium within 24 hours of passage to the desired concentration. Cells were lysed 18 hours post drug treatment using 1×SDS loading buffer. Cell lysates were sheared by pushed through 18G needles. Whole cell lysates were separated in 4-20% gradient gels (Bio-Rad Laboratories) and transferred onto nitrocellulose membranes. The membranes were blocked with 5% milk in TBST buffer (20 mM Tris, 137 mM NaCl, 0.1% Tween 20) at 4° C. overnight. The membranes were then probed with anti-CFTR antibody (AB660 from CFTR foundation) and anti-vimentin antibody as a loading control (Santa Cruz Biotechnology) at room temperature for two hours. The membranes were washed with TBST five times and then incubated with anti-mouse IgG, HRP linked antibody (Cell Signaling Technology) at room temperature for one hour. The membranes were washed three times with TBST and developed with chemiluminescence reagent (Thermo Scientific). The luminescence was detected by a Molecular Image Chemi Doc (Bio-Rad Laboratories). […]

G551D-CFTR = target: T2, G551D-CFTR (Homo sapiens, UniProt P13569, G551D); experiment: Patch-clamp recording of G551D-CFTR currents in excised inside-out patches of transfected CHO cells; settings: for fold increase of G551D-CFTR currents (ILZH+ATP/IATP): single application
T2 construct: The cDNA constructs of CFTR (G551D and delF508) were co-transfected with peGFP-C3; expressed in transfected cells; host or cells: CHO cells (ATCC), transient co-transfection with pEGFP-C3 (GFP as a separate marker, not fused)
Text: (§1) Patch-clamp is considered the gold standard for assessing directly ion channel function in real time. By attaching a glass microelectrode on the surface of a cell, it is possible to record the currents generated by channels proteins that are present in this tiny “patch” of cell membranes. Since millions of ions pass through a single ion channel pore per second, the resulting microscopic currents from a single channel protein molecule can be detected with modem patch-clamp amplifiers. As ion channels (a conductor in electricity term) are arranged in parallel in the cell membrane, it is also possible to assay a group of ion channels by monitoring macroscopic currents representing the sum of currents from individual channels. Microscopic recordings allow artisans to examine exquisitely the effects of compounds on the Po and kinetic parameters of CFTR channels; whereas macroscopic recordings provide an assay not only to quantify the overall effects of compounds on N×Po×i, but also monitor the stability of the CFTR currents in real time.
(§2) Chinese hamster ovary (CHO) cells were grown at 37° C. in Dulbecco's modified Eagle's medium supplemented with 10% fetal bovine serum. Cells were subcultured into 35-mm tissue culture dishes 1 day before transfection. PolyFect transfection reagent (QIAGEN) was used to cotransfect CFTR cDNA and pEGFP-C3 (Takara Bio Inc.), which encodes green fluorescence proteins, into CHO cells. After transfection, cells were incubated at 27° C. for at least 2 days before electrophysiological experiments were performed.
(§3) Glass chips carrying the transfected cells were transferred to a chamber located on the stage of an inverted microscope (IX51; Olympus). Borosilicate capillary glasses were used to make patch pipettes using a two-stage micropipette puller (PP-81, Narishige, Japan). The pipettes were polished with a homemade microforge to a resistance of 2-4 MΩ in the bath solution. Once the seal resistance reached >40 GΩ, membrane patches were excised into an inside-out mode. Subsequently, the pipette was moved to the outlet of a three-barrel perfusion system and perfused with 25 IU PKA and 2 mM ATP until the CFTR current reached a steady state. A patch-clamp amplifier (EPC10, HEKA, Germany) was used to record electrophysiological data at room temperature. The data were filtered online at 100 Hz with an eight-pole Bessel filter (LPF-8; Warner Instruments) and digitized to a computer at a sampling rate of 500 Hz. […] Membrane potential was held at −30 or −50 mV for all recordings.
(§4) Disease-causing mutations (G551D and delF508) were made with PCR-based site-directed mutagenesis using the Pfu Ultra II (Agilent Technologies). […] The cDNA constructs of CFTR (G551D and delF508) were co-transfected with peGFP-C3 (Takara Bio Inc.) encoding the green fluorescent protein into CHO cells using PolyFect transfection reagent (QIAGEN). The transfected cells were transferred into 35 mm tissue culture dishes containing one layer of sterilized glass chips for cells to grow on. The transfected cells were incubated at 27° C. for 2-7 days before electrophysiological experiments were performed.
(§5) All patch-clamp experiments were carried out in the excised inside-out configuration. Micropipettes made of borosilicate capillary glass were pulled with a two-stage vertical puller (Narishige) and then fire-polished with a homemade microforge to reach a pipet resistance of 2-4 MΩ when the pipettes were filled with a standard inside-out pipet solution that contains: 140 mM N-Methyl-D-glucamine-Cl (NMDG-Cl), 2 mM MgCl2, 5 mM CaCl2) and 10 mM HEPES, adjusted to pH 7.4 with NMDG.

delF508-CFTR [2] = target: T1, delF508-CFTR; experiment: Patch-clamp recording of delF508-CFTR currents in excised inside-out patches of transfected CHO cells
Text: as §1, §2, §3, §4, §5

T1 sequence (P13569 with tags, fused parts or gaps DEL508-508): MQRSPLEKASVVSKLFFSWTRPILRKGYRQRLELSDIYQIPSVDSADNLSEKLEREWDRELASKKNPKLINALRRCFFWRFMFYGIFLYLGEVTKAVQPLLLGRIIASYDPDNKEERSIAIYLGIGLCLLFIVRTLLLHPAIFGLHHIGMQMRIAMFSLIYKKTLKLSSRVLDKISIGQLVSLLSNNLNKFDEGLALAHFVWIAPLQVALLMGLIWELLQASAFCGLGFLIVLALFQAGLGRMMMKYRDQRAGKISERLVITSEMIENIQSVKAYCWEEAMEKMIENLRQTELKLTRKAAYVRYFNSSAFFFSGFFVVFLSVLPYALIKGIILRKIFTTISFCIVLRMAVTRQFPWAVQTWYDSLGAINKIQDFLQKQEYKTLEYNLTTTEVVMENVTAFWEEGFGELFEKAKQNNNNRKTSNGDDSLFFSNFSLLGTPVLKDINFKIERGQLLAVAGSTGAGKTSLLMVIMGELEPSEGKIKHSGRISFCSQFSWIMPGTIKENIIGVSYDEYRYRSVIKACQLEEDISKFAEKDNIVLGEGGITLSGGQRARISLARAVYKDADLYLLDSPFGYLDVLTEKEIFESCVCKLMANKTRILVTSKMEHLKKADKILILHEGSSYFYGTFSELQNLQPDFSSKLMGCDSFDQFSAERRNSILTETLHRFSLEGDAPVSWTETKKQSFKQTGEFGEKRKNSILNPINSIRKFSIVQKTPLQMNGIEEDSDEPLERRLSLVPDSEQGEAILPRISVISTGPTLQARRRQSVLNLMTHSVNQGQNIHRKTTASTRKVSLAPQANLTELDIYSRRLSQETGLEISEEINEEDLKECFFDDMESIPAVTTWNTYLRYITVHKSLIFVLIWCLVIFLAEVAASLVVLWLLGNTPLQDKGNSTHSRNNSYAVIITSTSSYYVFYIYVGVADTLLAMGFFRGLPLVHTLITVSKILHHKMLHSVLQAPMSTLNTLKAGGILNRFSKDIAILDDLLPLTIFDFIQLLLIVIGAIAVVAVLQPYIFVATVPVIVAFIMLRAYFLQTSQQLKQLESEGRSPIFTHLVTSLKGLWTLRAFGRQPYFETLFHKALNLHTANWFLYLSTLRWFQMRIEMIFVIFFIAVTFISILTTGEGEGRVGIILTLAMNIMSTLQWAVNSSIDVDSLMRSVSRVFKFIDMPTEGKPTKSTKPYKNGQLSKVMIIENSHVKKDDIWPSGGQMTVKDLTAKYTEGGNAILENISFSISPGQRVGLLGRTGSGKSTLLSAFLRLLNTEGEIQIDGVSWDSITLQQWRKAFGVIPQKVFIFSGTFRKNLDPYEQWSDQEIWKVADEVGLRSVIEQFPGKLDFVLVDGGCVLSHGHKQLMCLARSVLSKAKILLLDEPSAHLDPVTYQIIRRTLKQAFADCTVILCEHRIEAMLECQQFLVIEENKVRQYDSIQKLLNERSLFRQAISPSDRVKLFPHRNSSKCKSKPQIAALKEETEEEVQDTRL
T2 sequence (P13569 whole entry G551D, the tested form may be a part): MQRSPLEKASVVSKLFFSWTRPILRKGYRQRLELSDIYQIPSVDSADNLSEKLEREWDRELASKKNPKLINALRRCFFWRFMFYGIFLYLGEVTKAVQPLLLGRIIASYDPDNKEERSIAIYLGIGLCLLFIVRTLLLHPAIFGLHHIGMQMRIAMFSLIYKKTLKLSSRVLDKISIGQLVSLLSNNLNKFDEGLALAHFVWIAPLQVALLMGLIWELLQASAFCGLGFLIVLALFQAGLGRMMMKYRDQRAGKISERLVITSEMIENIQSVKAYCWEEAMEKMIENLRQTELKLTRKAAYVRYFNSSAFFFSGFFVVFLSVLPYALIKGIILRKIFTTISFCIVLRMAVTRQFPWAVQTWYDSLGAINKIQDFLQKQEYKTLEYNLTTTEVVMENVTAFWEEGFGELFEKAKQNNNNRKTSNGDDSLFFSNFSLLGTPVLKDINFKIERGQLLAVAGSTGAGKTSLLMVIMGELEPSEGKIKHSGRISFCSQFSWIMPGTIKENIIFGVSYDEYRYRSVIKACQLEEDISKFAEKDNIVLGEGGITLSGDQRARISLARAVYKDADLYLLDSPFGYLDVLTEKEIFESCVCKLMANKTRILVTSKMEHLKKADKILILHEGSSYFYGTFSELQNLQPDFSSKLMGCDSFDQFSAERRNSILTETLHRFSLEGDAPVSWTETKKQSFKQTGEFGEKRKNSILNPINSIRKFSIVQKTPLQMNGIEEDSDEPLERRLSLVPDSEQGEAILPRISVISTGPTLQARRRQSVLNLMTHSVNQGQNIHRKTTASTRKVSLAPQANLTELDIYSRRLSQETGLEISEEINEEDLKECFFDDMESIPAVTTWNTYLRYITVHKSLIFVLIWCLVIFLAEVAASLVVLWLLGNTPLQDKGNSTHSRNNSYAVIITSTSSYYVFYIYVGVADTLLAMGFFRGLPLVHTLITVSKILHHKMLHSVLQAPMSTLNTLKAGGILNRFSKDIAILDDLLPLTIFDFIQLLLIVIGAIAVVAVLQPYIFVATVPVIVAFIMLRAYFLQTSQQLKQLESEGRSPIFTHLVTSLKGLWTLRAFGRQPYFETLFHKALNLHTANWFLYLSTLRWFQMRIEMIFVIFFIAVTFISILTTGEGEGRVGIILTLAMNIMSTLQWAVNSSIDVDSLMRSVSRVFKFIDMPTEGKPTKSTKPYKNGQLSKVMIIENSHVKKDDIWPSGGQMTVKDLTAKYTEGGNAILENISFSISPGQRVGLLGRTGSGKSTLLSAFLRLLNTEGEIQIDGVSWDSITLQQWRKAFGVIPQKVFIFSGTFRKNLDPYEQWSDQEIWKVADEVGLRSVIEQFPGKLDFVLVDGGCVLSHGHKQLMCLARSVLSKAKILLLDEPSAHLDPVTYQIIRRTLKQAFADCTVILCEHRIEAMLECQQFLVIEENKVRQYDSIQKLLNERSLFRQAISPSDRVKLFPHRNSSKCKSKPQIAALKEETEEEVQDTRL

CNCCCCCCOc1ccc(-c2nn(C)c3cc(Br)ccc23)c(F)c1 [LZH-00015, 6-(4-(6-bromo-1-methyl-1H-indazol-3-yl)-3-fluorophenoxy)-N-methylhexan-1-amine]
surface expression of delF508-CFTR (Band C, corrected to vimentin, DMSO = 100) (delF508-CFTR [1]; 3 μM VX-809 + 0.1 μM LZH compound, lane 5): 395 ± 99, N = 4
surface expression of delF508-CFTR (Band C, corrected to vimentin, DMSO = 100) (delF508-CFTR [1]; 3 μM VX-809 + 0.5 μM LZH compound, lane 4): 347 ± 106, N = 4
surface expression of delF508-CFTR (Band C, corrected to vimentin, DMSO = 100) (delF508-CFTR [1]; 3 μM VX-809 + 5 μM LZH compound, lane 3): 356 ± 98, N = 4
influence on the effect of Lumacaftor (VX-809) on membrane expression of delF508-CFTR (words) (delF508-CFTR [1]; added to 3 μM VX-809): further enhanced; also recorded: retains or even enhances the effect of Lumacaftor
fold increase of G551D-CFTR currents (ILZH+ATP+VX-770/IATP) (G551D-CFTR; combined application with VX-770, 0.2 μM LZH compound): 5.8 ± 0.9, N = 5 fold
fold increase of G551D-CFTR currents (ILZH+ATP+VX-770/IATP) (G551D-CFTR; combined application with VX-770, 1 μM LZH compound): 16.7 ± 10.6, fold
fold increase of G551D-CFTR currents (ILZH+ATP+VX-770/IATP) (G551D-CFTR; combined application with VX-770, 5 μM LZH compound): 42.5 ± 10.0, N = 5 fold
effect on G551D-CFTR currents in the presence of VX-770 (G551D-CFTR; in the presence of Ivacaftor (VX-770)): significant synergism with VX-770; also recorded: further increased the current
fold increase of G551D-CFTR currents (ILZH+ATP/IATP) (G551D-CFTR; 1 μM): 1.0 ± 0.7, N = 3 fold
fold increase of G551D-CFTR currents (ILZH+ATP/IATP) (G551D-CFTR; 5 μM): 4.5 ± 0.5, N = 3 fold
fold increase of G551D-CFTR currents (ILZH+ATP/IATP) (G551D-CFTR; 20 μM): 3.3 ± 0.8, N = 3 fold
rundown of delF508-CFTR current, compound added in the continuous presence of Ivacaftor (delF508-CFTR [2]; FIG. 10): stops the rundown process and stabilizes the current
fold increase of delF508-CFTR currents (ILZH+ATP+VX-770/IATP) (delF508-CFTR [2]; combined application with VX-770 (200 nM), 2.5 μM LZH compound): 15 fold and 15.9 ± 1.0, N = 3 fold
fold increase of delF508-CFTR currents (ILZH+ATP+VX-770/IATP) (delF508-CFTR [2]; combined application with VX-770, 0.5 μM LZH compound): 5.9 ± 1.3, N = 3 fold
rundown of delF508-CFTR current in the presence of the compound (delF508-CFTR [2]; real-time current trace, FIG. 10): virtually no rundown of the current
fold increase of delF508-CFTR currents (ILZH+ATP/IATP) (delF508-CFTR [2]; single application, 5 μM): 3.4±0.4 fold and 3.4 ± 0.4, N = 7 fold
